Article PMC8596843, “Platinum Cyclooctadiene Complexes with Activity against Gram‐positive Bacteria” (Chemmedchem, 2021)

Experiments:
[1] = tested on: HEK-293 ATCC CRL-1573 human embryonic kidney cells; type: cell-based
Experimental: As part of the CO‐ADD screening, all compounds that show any activity against a microbial strain are evaluated for their cytotoxicity against human embryonic kidney cells (HEK‐293) and for haemolysis against human red blood cells. None of the compounds tested for cytotoxicity (Pt1‐9 and Pd1) caused any significant cell death up to concentrations of 100 μM. […] We have also observed higher IC50 values for the methylated complexes Pt3 and Pt4 against HeLa cells in previous work.[16] […]
(§1) inhibitors as positive control.
(§2) Tamoxifen (Sigma T5648) was used
(§3) as internal control on each plate.
in a Neubauer haemocytometer. […]

human red blood cells = test: Haemolysis assay; type: cell-based; conditions: for Haemolysis HC10: concentration inducing 10 % haemolysis
Experimental: As part of the CO‐ADD screening, all compounds that show any activity against a microbial strain are evaluated for their cytotoxicity against human embryonic kidney cells (HEK‐293) and for haemolysis against human red blood cells. None of the compounds tested for cytotoxicity (Pt1‐9 and Pd1) caused any significant cell death up to concentrations of 100 μM. […] We have also observed higher IC50 values for the methylated complexes Pt3 and Pt4 against HeLa cells in previous work.[16]
(§4) The resultant mid-log phase cultures were diluted
(§5) Gram-negative and Gram-positive bacteria, respectively.
(§6) final concentration range of 0.8 – 100 µM.
as §1, §2, §3
in a Neubauer haemocytometer.
incubated for 1 h at 37 °C, without shaking.
HC10 and HC50 (concentration at which 10%
for top, bottom and slope using Prism 8. […]

[2] = tested on: Staphylococcus aureus ATCC 25923, MSSA; test: Antibacterial MIC assay, Gram-positive panel; type: cell-based; conditions: Table S1 panel; n=4
Source text: (§7) Bis(dimethyl-η4)-((1Z,1'E,5Z,5'E)-(1,1'-bi(cyclooctadiene))diplatinum(II) (Pt14) Smiles: C1C=CCCC(=CC1)C1=CCCC=CCC1.C[Pt]C.C[Pt]C
(§8) InChIKey: PHIWIZAHOBWKFJ-HPCBIOCFSA-N
(§9) Link to selected data that was repeated to approve the identity of the compounds: https://dx.doi.org/10.14272/PHIWIZAHOBWKFJ-HPCBIOCFSA-N.1
(§10) ATCC strains were sourced from the American Type Culture Collection and NRS strains from NARSA (Network on Antimicrobial Resistance in Staphylococcus aureus) via BEI Resources (www.beiresources.org), with clinical MSSA and MRSA isolates from Prof Graeme Nimmo, Queensland […]
(§11) Health Central Pathology. […]
(§12) Antibacterial minimum inhibitory concentration (MIC) assay
(§13) Compound Assay Plate Preparation: Compounds were dissolved in DMSO at 10mM (CO-ADD screening) or 4 mM (follow up screening) and were plated in a 2-fold dose response from 20 to 0.156 µM or 200 to 0.006 µM respectively, with a maximum of 0.5% or 1% DMSO, final in the assay […]
(§14) plated in a 2-fold dose response from 200 to 0.006 µM, with a maximum of 1 % DMSO, final in the assay concentration. (in-house screening)
(§15) For all the bacterial assays, each strain was cultured in Cation-adjusted Mueller Hinton broth (CAMHB; Bacto Laboratories 212322) at 37 °C overnight. A sample of each culture was then diluted 40-fold in fresh CAMHB and incubated at 37 °C for 1.5–3 h. The resultant mid-log phase cultures were diluted with CAMHB (CFU mL−1 measured by OD600), then added to each well of the compound-containing plates (384-well non-binding surface (NBS) plates; Corning CLS3640), giving a cell density of 5 × 10^5 CFU mL−1 and a total volume of 50 μL. Plates were covered and incubated at 37 °C for 18 h without shaking. Inhibition of bacterial growth was determined measuring absorbance at 600 nm (OD600), using media only as negative control and bacteria without inhibitors as positive control. MIC values were determined as the lowest concentration at which the growth was inhibited at ≥80%. Colistin sulfate (Sigma C4461) and vancomycin HCl (Sigma 861987) were used as internal controls on each plate for Gram-negative and Gram-positive bacteria, respectively. […]

[3] = tested on: Staphylococcus aureus VRS 1, VRSA (VanA); test: Antibacterial MIC assay, Gram-positive panel; type: cell-based; conditions: Table S1 panel; n=4
Source text: as §7, §8, §9, §10, §11, §12, §13, §14, §15

[4] = tested on: Bacillus subtilis ATCC 6051, type strain; test: Antibacterial MIC assay, Gram-positive panel; type: cell-based; conditions: Table S1 panel; n=2
Experimental: (§16) Smiles: C1C=CCCC(=CC1)C1=CCCC=CCC1.C[Pt]C.C[Pt]C […]
as §10, §11, §12, §13, §14, §15

[5] = tested on: Enterococcus faecalis ATCC 29212, control strain; test: Antibacterial MIC assay, Gram-positive panel; type: cell-based; conditions: Table S1 panel; n=4
Experimental: as §16, §10, §11, §12, §13, §14, §15

[6] = tested on: Enterococcus faecalis Clinical Isolate, VRE (VanB); test: Antibacterial MIC assay, Gram-positive panel; type: cell-based; conditions: Table S1 panel; n=4
Experimental: as §16, §10, §11, §12, §13, §14, §15

[7] = tested on: Enterococcus faecium ATCC 35667, type strain; test: Antibacterial MIC assay, Gram-positive panel; type: cell-based; conditions: Table S1 panel; n=4
Experimental: as §16, §10, §11, §12, §13, §14, §15

[8] = tested on: Enterococcus faecium ATCC 51559, MDR, VRE (VanA); test: Antibacterial MIC assay, Gram-positive panel; type: cell-based; conditions: Table S1 panel; n=2
Experimental: as §16, §10, §11, §12, §13, §14, §15

[9] = tested on: Enterococcus faecium Clinical Isolate, VRE (VanA); test: Antibacterial MIC assay, Gram-positive panel; type: cell-based; conditions: Table S1 panel; n=4
Experimental: as §16, §10, §11, §12, §13, §14, §15

[10] = tested on: Staphylococcus epidermidis ATCC 14990, type strain; test: Antibacterial MIC assay, Gram-positive panel; type: cell-based; conditions: Table S1 panel; n=4
Experimental: as §16, §10, §11, §12, §13, §14, §15

[11] = tested on: E. coli lpxC (non‐efficient lipid A production mutant); test: MIC against E. coli membrane mutants; type: cell-based, Escherichia coli; conditions: Table S2
Experimental: as §12
(§17) concentration. (in-house screening)
(§18) Bacto Laboratories 212322) at 37 °C overnight.
as §4, §5, §6
(§19) inhibitors as positive control. […]

[12] = tested on: B. subtilis ATCC 6051 type strain; test: MIC in the presence of human serum (serum reversal); type: cell-based, Bacillus subtilis; conditions: 10% serum
Source text: (§20) To obtain some initial insight into the apparent disparity between in vitro and in vivo results, we repeated the MIC experiments against four selected Gram‐positive strains in the presence of 10 % or 50 % human serum (Table S3). Pt1 and Pt2 maintained some antibacterial activity against B. subtilis in the presence of 10 % serum, but a complete loss of activity was observed against MRSA and GISA (50 % serum), and VRE (10 % serum). […] Systemic administration is therefore unlikely to be a suitable administration route for this class of compounds unless an alternative formulation that can prevent serum binding (e. g. by lipid or nanoparticle encapsulation) can be found. […] Further in vivo studies should therefore focus on more suitable disease models. […]
as §12, §17, §18, §4, §5, §6, §19

[13] = tested on: S. aureus ATCC 43300 MRSA; test: as above; type: cell-based, Staphylococcus aureus; conditions: 50% serum
Source text: as §20, §12, §17, §18, §4, §5, §6, §19

S. aureus NRS 17 GISA = test: as above; type: cell-based, Staphylococcus aureus; conditions: 50% serum
Source text: as §20, §12, §17, §18, §4, §5, §6, §19

[14] = tested on: E. faecium ATCC 51559 MDR, VRE; test: as above; type: cell-based, Enterococcus faecium; conditions: 10% serum
Source text: as §20, §12, §17, §18, §4, §5, §6, §19

Row | SMILES | CC50 [1] [µM] | Haemolysis HC10 (human red blood cells) [µM] | Haemolysis HC50 (human red blood cells; concentration inducing 50 % haemolysis) [µM] | MIC [2] [µM] | MIC [3] [µM] | MIC [4] [µM] | MIC [5] [µM] | MIC [6] [µM] | MIC [7] [µM] | MIC [8] [µM] | MIC [9] [µM] | MIC [10] [µM] | MIC E. coli lpxC [11] [µM] | MIC in the presence of human serum [12] [µM] | MIC in the presence of human serum [13] [µM] | MIC in the presence of human serum (S. aureus NRS 17 GISA) [µM] | MIC in the presence of human serum [14] [µM] | HEK‐293 CC50 [1]
1 | C1=C\CC/C=C\CC/1.[Cl][Pd][Cl] [Pd1] | > 100 | 7.76 | 10.14 | 200 | > 200 | > 200 | > 200 | > 200 | > 200 | 200 | > 200 | 100 | > 200 | > 200 | > 200 | > 200 | > 200 | 
2 | CC/C(=C(\c1ccccc1)c1ccc(OCCN(C)C)cc1)c1ccccc1 [Tamoxifen, reference compound] |  |  |  |  |  |  |  |  |  |  |  |  |  |  |  |  |  | 34.75–30.55
3 | CC[C@H](C)[C@H](NC(=O)CN)C(=O)NCC(=O)N[C@@H](C)C(=O)N[C@H](C(=O)N[C@@H](CC(C)C)C(=O)N[C@@H](CCCCN)C(=O)N[C@H](C(=O)N[C@@H](CC(C)C)C(=O)N[C@H](C(=O)N[C@H](C(=O)NCC(=O)N[C@@H](CC(C)C)C(=O)N1CCC[C@H]1C(=O)N[C@@H](C)C(=O)N[C@@H](CC(C)C)C(=O)N[C@H](C(=O)N[C@@H](CO)C(=O)N[C@@H](Cc1c[nH]c2ccccc12)C(=O)N[C@H](C(=O)N[C@@H](CCCCN)C(=O)N[C@@H](CCCNC(=N)N)C(=O)N[C@@H](CCCCN)C(=O)N[C@@H](CCCNC(=N)N)C(=O)N[C@@H](CCC(N)=O)C(=O)N[C@@H](CCC(N)=O)C(N)=O)[C@@H](C)CC)[C@@H](C)CC)[C@@H](C)O)[C@@H](C)O)C(C)C)C(C)C [Melittin, reference compound] |  | 1.15 |  |  |  |  |  |  |  |  |  |  |  |  |  |  |  | 
